Experimental data as given in patent US20210341378A1, “HIGH-CONTENT IMAGING OF MICROFLUIDIC DEVICES” (priority 2019, published 2021).

Key:
[1] = system: microfluidic devices seeded with human liver cells; assay: Albumin secretion (ELISA), human Liver-Chip; assay type: cell-based
Description: Prior to cell seeding, microfluidic devices, in this case S-I Chips (Emulate, Inc. Boston, Mass., USA), were functionalized using Emulate's proprietary protocols and reagents (ER™), including those described herein. After surface functionalization, both channels of the microfluidic device were coated with species-specific extracellular matrices (ECM). For the human bound microfluidic device, a mixture of collagen type I (Corning, Corning, N.Y., USA) and fibronectin, e.g. bovine, (Gibco) was used; for the rat bound microfluidic devices a mixture of collagen type IV, e.g. human placenta, (Sigma-Aldrich, St. Louis, Mo., USA) and fibronectin (Gibco) was used; for the dog bound microfluidic devices a mixture of collagen I (Corning), collagen type IV (Sigma-Aldrich), and fibronectin (Gibco) was used. […] For the dual-cell culture model (hepatocytes and endothelial cells), the LSECs were seeded at a concentration of 2-4 million cells/mL in the lower vascular channel. […] After cell seeding, the upper channel of the microfluidic device was maintained in William's E Medium (WEM) containing Glutamax (Gibco), ITS+ (Corning), dexamethasone (Sigma-Aldrich), ascorbic acid (Sigma-Aldrich), fetal bovine serum (FBS) (Sigma-Aldrich), and Penicillin/Streptomycin (Sigma-Aldrich). The vascular channel of the microfluidic device was maintained with species-specific endothelial media (Emulate, Inc.). Two days after seeding, the microfluidic devices were connected to the Human Emulation System™ (Emulate, Inc.), as described in part herein, and both of the microfluidic device channels were perfused at 30 μL/hr to provide a continuous supply of fresh media for the duration of the experiments. Albumin secretion from the upper channel was quantified using ELISA kits for human, rat, and dog models effluent samples (human and rat: Abcam; dog: Immunology Consultants Laboratory, Inc., Portland, Oreg., USA) and the assays were performed according to the protocol provided by each vendor.

[2] = system: microfluidic devices seeded with rat liver cells; assay: Albumin secretion (ELISA), rat Liver-Chip; assay type: cell-based; settings: FIAU 1, 10 and 30 μM, rat chip
Description: Prior to cell seeding, microfluidic devices, in this case S-I Chips (Emulate, Inc. Boston, Mass., USA), were functionalized using Emulate's proprietary protocols and reagents (ER™), including those described herein. After surface functionalization, both channels of the microfluidic device were coated with species-specific extracellular matrices (ECM). For the human bound microfluidic device, a mixture of collagen type I (Corning, Corning, N.Y., USA) and fibronectin, e.g. bovine, (Gibco) was used; for the rat bound microfluidic devices a mixture of collagen type IV, e.g. human placenta, (Sigma-Aldrich, St. Louis, Mo., USA) and fibronectin (Gibco) was used; for the dog bound microfluidic devices a mixture of collagen I (Corning), collagen type IV (Sigma-Aldrich), and fibronectin (Gibco) was used. […] For the dual-cell culture model (hepatocytes and endothelial cells), the LSECs were seeded at a concentration of 2-4 million cells/mL in the lower vascular channel. […] Albumin secretion from the upper channel was quantified using ELISA kits for human, rat, and dog models effluent samples (human and rat: Abcam; dog: Immunology Consultants Laboratory, Inc., Portland, Oreg., USA) and the assays were performed according to the protocol provided by each vendor.

[3] = system: microfluidic devices seeded with human liver cells; assay: Release of DILI biomarkers (miR-122, alpha-GST, keratin 18), human Liver-Chip; assay type: cell-based
Description: Exemplary Biomarker, e.g. DILI: Keratin 18 levels were quantified in human model effluent samples from both the hepatocyte and vascular channels using the M65 EpiDeath CK18 ELISA Kit (DiaPharma, Detroit, Mich., USA). The assay was run following the vendor protocol using a standard curve ranging from 0-5,000 U/L. Additionally, a standard curve ranging from 0-500 U/L was generated independently for quality control.
Exemplary Biomarker, e.g. DILI: Alpha Glutathione S-Transferase (α-GST) levels were quantified in human model effluent samples from the upper channel using an ELISA kit (DiaPharma). The assay was run following the vendor protocol using a standard curve ranging from 0-64 μg/L. Additionally, a standard curve ranging from 0-50 μg/L was generated independently for quality control.
Exemplary Biomarker, e.g. DILI: Mir-122: Isolation of micro-RNAs was performed on upper and lower chamber eluates using Qiagen's (Hilden, Germany) miRNA isolation kit for serum and plasma. A total volume of 50 μL was used for isolation. Isolation was performed according to manufacturer's protocol using a 56.5 pM oligonucleotide spike-in control. Samples were eluted with 14 μL RNase-free water. Reverse transcription was performed using Thermo Fisher Scientific's TaqMan™ MicroRNA Reverse Transcription Kit according to the manufacturer's protocol. A total reaction volume of 15 μL was used. Real-time PCR was performed using Thermo Fisher Scientific's TaqMan™ Micro-RNA Assays according to manufacturer's protocol. A total reaction volume of 10 μL was used. Normalized rrCt was used for fold-change analysis.

[4] = system: microfluidic devices seeded with human liver cells; assay: Cytokine release (IL-6, MCP-1, IP-10) from vascular channel, human Liver-Chip; assay type: cell-based; settings: for release of IL-6 / release of MCP-1: 14 days
Method: Cytokines: Release of IL-6, MCP-1, and IP-10 from the vascular channel was quantified using U-PLEX biomarker human assays (Meso Scale Diagnostics, Rockville, Md., USA) and the assays were performed according to the protocol provided by the vendor.

[5] = system: microfluidic devices seeded with human liver cells; assay: Lipid accumulation (Nile red / AdipoRed), human Liver-Chip; assay type: cell-based
Description: (§1) Microfluidic devices seeded with liver cells were stained in the upper channel with 5(6)-Carboxy-2′,7′-dichlorofluorescein diacetate (CDFDA) (ThermoFisher) to visualize bile canaliculi and MRP2 activity, cholyl-lysyl-fluorescein (CLF) (Corning) to visualize bile canaliculi and BSEP activity, Nile red (ThermoFisher) or AdipoRed (Lonza) to visualize lipid droplet accumulation, Tetramethylrhodamine, methyl ester (TMRM) (ThermoFisher) to visualize active mitochondria, and CellROX® (ThermoFisher) to visualize cellular oxidative stress. Each staining solution was prepared in blank medium or compound dosing medium and added to the upper channel, incubated for 15 minutes at 37° C., and washed three times with medium. The stained microfluidic devices were imaged using a specific filter, and were de-blurred with Olympus cellSens software. Using ImageJ-Fiji, the fluorescent channel images were histogram adjusted to remove background, followed by fluorescence quantification using the Integrated Density calculation function.
(§2) The stained microfluidic devices were imaged using the TRITC filter, and were de-blurred with Olympus cellSens software. Using ImageJ-Fiji, the fluorescent channel images were histogram adjusted to remove background, followed by fluorescence quantification using the Integrated Density calculation function. N=5 FOVs per microfluidic device were analyzed for conditions: vehicle (0.1% DMSO), FIAU dosing groups, and MTX dosing groups.

[6] = system: microfluidic devices seeded with rat liver cells; assay: Lipid accumulation (Nile red), rat Liver-Chip; assay type: cell-based; settings: FIAU 1, 10 and 30 μM for 10 days
Description: as §1, with “The stained microfluidic devices were imaged using a specific filter, and were de-blurred with Olympus cellSens software.” left out
as §2

[7] = cited from earlier work
[8] = system: microfluidic devices seeded with human liver cells; assay: ROS (CellROX) live staining, human Liver-Chip; assay type: cell-based; settings: TAK-875, human chip
[9] = system: stellate cells; assay: Stellate cell activation (alpha-SMA), human Liver-Chip; assay type: cell-based; settings: TAK-875 10 or 30 uM for 15 days
Method: Microfluidic devices seeded with liver cells and static sandwich plate cultures were fixed with 4% paraformaldehyde for 15 minutes at room temperature, washed with PBS, and permeabilized (saponin 1% with 10% serum in PBS). Blocking and incubation with the primary antibodies (overnight in PBS containing 1% BSA or PBS containing 10% serum and 1% BSA) was followed by a two-hour incubation with secondary antibodies (Cell Signaling, Danvers, Mass., USA) in the same blocking buffer. Immunostaining was performed with specific primary antibodies (anti-MRP2, anti-stabilin-1, anti-BSEP, anti-α-SMA, anti-CD68; Abcam, Cambridge, Mass., USA) and images were acquired with either an Olympus fluorescence microscope (IX83) or Zeiss confocal microscope (AxiovertZ1 LSM880).
The number of CD68- or α-SMA-positive cells in the vascular channel in each group was counted in each field of view ([…]) and quantified.
The fluorescent channel (588) was first background subtracted and processed using the median filter of Image J. After processing, the signal was thresholded using adaptive thresholding function of Image J (Otsu method) to extract fluorescent regions and to measure the relative intensity of the fluorescent signal. N=4 to 6 FOVs per microfluidic device from each microfluidic device were analyzed. […]

[10] = molecular target: T1, MRP2 (Homo sapiens, UniProt Q92887); assay: Biliary efflux of CDFDA (MRP2 activity), human Liver-Chip; assay type: cell-based; settings: TAK-875 3, 10, 30 μM
T1 construct: Primary rat, dog or human hepatocytes were cultured in the upper parenchymal channel; endogenous in cells; host or cells: primary human hepatocytes in a microfluidic Liver-Chip
Method: Both a brightfield and a fluorescence image was taken from each field of view. […] CLF-labeled regions that most likely to corresponded to bile canaliculi were automatically identified based on geometric criteria and retained only if they co-localized with a bile canaliculi signal in channel 1. […] These criteria were determined empirically using a small test set of images and then applied to images for the analysis. […] The data for treated and control samples were quantified by computing the area percentage of CLF-labeled bile canaliculi within each field of view (FOV).

[11] = system: mitochondrial membrane potential; assay: TMRM staining (mitochondrial membrane potential), human Liver-Chip; assay type: cell-based; settings: TAK-875 3, 10, 30 μM, 8 or 15 days
Description: as §1

T1 sequence (Q92887 whole entry): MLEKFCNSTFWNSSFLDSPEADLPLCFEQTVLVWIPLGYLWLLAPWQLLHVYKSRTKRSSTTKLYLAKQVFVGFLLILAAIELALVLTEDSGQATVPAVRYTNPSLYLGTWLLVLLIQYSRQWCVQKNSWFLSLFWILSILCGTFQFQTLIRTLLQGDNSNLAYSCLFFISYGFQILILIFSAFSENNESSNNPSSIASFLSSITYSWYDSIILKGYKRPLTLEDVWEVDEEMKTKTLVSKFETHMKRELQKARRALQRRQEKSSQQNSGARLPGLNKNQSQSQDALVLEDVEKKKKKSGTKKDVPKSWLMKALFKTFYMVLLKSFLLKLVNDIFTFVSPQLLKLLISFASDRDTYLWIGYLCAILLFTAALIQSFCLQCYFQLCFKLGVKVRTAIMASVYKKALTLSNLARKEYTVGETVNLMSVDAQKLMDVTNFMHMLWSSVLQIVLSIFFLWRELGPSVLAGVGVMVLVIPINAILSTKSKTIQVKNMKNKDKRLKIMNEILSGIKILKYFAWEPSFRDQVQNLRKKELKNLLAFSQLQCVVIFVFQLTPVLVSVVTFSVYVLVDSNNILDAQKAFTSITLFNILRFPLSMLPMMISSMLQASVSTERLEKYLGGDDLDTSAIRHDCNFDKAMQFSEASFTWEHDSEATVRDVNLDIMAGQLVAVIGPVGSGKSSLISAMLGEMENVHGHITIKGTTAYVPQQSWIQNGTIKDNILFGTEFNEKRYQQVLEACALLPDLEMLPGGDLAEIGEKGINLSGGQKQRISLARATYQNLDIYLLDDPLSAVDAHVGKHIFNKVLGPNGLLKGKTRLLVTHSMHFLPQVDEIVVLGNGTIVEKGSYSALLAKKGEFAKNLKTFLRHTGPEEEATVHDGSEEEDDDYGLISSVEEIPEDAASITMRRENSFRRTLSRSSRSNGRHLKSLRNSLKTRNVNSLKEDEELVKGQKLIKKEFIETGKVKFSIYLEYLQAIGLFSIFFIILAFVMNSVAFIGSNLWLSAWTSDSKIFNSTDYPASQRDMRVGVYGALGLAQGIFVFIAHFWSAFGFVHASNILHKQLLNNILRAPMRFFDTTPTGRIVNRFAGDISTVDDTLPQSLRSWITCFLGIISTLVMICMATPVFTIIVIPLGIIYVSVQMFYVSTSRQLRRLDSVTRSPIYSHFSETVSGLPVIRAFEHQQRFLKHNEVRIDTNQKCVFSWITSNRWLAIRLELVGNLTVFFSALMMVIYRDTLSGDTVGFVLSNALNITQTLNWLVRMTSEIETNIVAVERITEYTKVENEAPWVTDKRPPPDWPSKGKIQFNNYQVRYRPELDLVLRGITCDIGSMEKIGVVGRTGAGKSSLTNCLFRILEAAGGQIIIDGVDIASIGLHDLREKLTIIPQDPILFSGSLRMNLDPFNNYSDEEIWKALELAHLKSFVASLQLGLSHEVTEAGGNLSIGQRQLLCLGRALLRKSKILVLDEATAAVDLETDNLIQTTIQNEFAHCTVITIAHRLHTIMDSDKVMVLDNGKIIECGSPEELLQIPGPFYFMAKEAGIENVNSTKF

With `O=c1[nH]c(=O)n([C@@H]2O[C@H](CO)[C@@H](O)[C@@H]2F)cc1I` [FIAU, fialuridine] as the compound, how does the “concentrations giving dose-dependent decline in albumin secretion” value ([1]; FIAU, human quadruple-cell chip, 7 days) read?
The value was no less than 1000 nM.

What about the “hepatocyte function (albumin secretion)” value [2] of the same compound?
Its value is “no effects”.

And the “keratin 18 (K-18)” value ([3]; FIAU 10 days, human chip)?
The value was “release”.

What about the miR122 ([3]; FIAU 10 days, human chip) of the same compound?
Its miR122 is “release”.

What about the α-GST ([3]; FIAU 10 days, human chip) of the same compound?
Its α-GST is “release”.

What about the “cytokines/chemokines including IP-10” value ([4]; treated Liver-Chips (discussion)) of the same compound?
Its value is “release”.

What about the lipid accumulation ([5]; daily 1, 10 and 30 μM for 10 days, human quadruple-cell chip) of the same compound?
The lipid accumulation was “dose-dependent increase”.

What about the lipid accumulation [6] of the same compound?
The lipid accumulation was “no effects”.

What about the “patients with liver failure and deaths” value ([7]; Phase II clinical trials) of the same compound?
Its value is 5/15.

With `Cc1cc(OCCCS(C)(=O)=O)cc(C)c1-c1cccc(COc2ccc3c(c2)OC[C@H]3CC(=O)O)c1` [TAK-875] as the compound, how does the albumin production ([1]; TAK-875 30 μM, 14 days) read?
Its albumin production is “decreased”.

And the “formation of ROS” value [8]?
Its value is “increase”.

What about the K18 ([3]; TAK-875 30 μM, 14 days) of the same compound?
Its K18 is “increased release”.

And the “release of IL-6” value ([4]; TAK-875 10 μM)?
The value was “significant release”.

What about the “release of MCP-1” value ([4]; TAK-875 10 μM) of the same compound?
The value was “significant release”.

What about the “release of IL-6” value ([4]; TAK-875 30 μM) of the same compound?
The value was “not observed”.

What about the “release of MCP-1” value ([4]; TAK-875 30 μM) of the same compound?
The value was “not observed”.

And the lipid droplet accumulation ([5]; TAK-875, end of the 2-week treatment)?
Its lipid droplet accumulation is “detected”.

And the “% aSMA positive area from the vascular channel” value [9]?
The value was “Not significant”.

What about the “biliary efflux of the MRP2 substrate CDFDA” value [10] of the same compound?
The value was “dose-dependent decrease”.

And the “mitochondrial potential sensitive dye TMRM” value [11]?
Its value is “dose-related and time-dependent redistribution”.

And the “incidence of treatment-related elevations in transaminases” value ([7]; human, in vivo)?
Its value is 2.7%.
